# According to PMC6930503, “Antiviral, Antimicrobial and Antibiofilm Activity of Selenoesters and Selenoanhydrides” (Molecules, 2019):
# How the values were obtained:
# [1] = test system: Candida albicans ATCC 10231; experiment: Antifungal broth microdilution MIC; assay type: cell-based; settings: ATCC10231, read-out: Minimal inhibitory concentration
# Procedure: (§1) This MIC values were calculated by using the broth microdilution method (Table 3).
# (§2) Broth microdilution method. […] Determination of the MIC values was performed by using the broth microdilution method, according to EUCAST standards.
# [2] = test system: Candida krusei ATCC 14243; experiment: Antifungal broth microdilution MIC; assay type: cell-based; settings: Pichia kudriavzevii, ATCC14243, read-out: Minimal inhibitory concentration
# Procedure: as §1, §2
# [3] = test system: Candida parapsilosis ATCC 22019; experiment: Antifungal broth microdilution MIC; assay type: cell-based; settings: Lodderomyces parapsilosis, ATCC22019, read-out: Minimal inhibitory concentration
# Procedure: as §1, §2
# [4] = test system: Cryptococcus diffluens ATCC 32059; experiment: Antifungal broth microdilution MIC; assay type: cell-based; settings: Naganishia diffluens, ATCC32059, read-out: Minimal inhibitory concentration
# Procedure: as §1, §2
# S. aureus ATCC 25923 [5] = experiment: Biofilm formation assay with crystal violet; assay type: cell-based; settings: Staphylococcus aureus, ATCC25923, 48 h; for inhibition at 50 µM: compound at 50 μM
# Procedure: (§3) The biofilm-forming ability of S. Typhimurium and S. aureus ATCC strains was studied in 96-well microtiter plates, using Luria-Bertani (LB) broth without salt (S. Typhimurium) or tryptic soy broth TSB (S. aureus) in the presence of selenocompounds. Initially, overnight cultures were diluted to an optical density (OD) of 0.1 at 600 nm and then added to each well, with the exception of the medium control wells and compounds were added individually at ½ MIC. The final volume was 200 μL in each well. Plates were incubated at 30 °C, for 48 h, with gentle agitation (100 rpm). After the incubation period, the medium was discarded, and the plate was washed with tap water, to remove unattached cells. Then, 200 μL of crystal violet (CV; 0.1% [v/v]) was added to the wells and incubated for 15 min at room temperature. CV was removed from the wells, and the plate was washed again with tap water. Then, 200 μL of 70% ethanol was added to each well, and the biofilm formation was determined by measuring the OD at 600 nm, using a FLUOstar Optima plate reader (BMG Labtech, Aylesbury, UK). The antibiofilm effect of selenocompounds was expressed in the percentage (%) decrease in biofilm formation. The assay was repeated a minimum of three times. The results were analyzed by using the t-test and p-values of <0.05 were considered significant.
# S. aureus ATCC 25923 [6] = experiment: Antibiofilm effect in combination with ciprofloxacin; assay type: cell-based, Staphylococcus aureus; settings: CIP at 1.6 µM, compound at ½ MIC
# Procedure: (§4) […]; 4, 5, 7, 8 and 9 for S. Typhimurium).
# (§5) […]. The effect was determined by two-fold broth microdilution method in 96-well plates, using serial dilutions of TET and CIP. The first four rows contained two-fold dilutions of antibiotics, and combinations of the antibiotics and tested compounds were added into the last four rows. The overnight bacterial cultures were diluted to an OD of 0.1 at 600 nm and then added to each well, in 50 μL LB, without salt or TSB, with the exception of the medium control wells. The plates were then incubated at 30 °C, for 48 h, with gentle agitation (100 rpm), and the biofilm formation was determined by measuring the OD at 600 nm, using a FLUOstar Optima plate reader. The antibiofilm effect of antibiotic alone and in combination with selenocompounds was expressed in the percentage (%) of decrease in biofilm formation. The results were analyzed by using the t-test and p-values of <0.05 were considered significant.
# [7] = test system: Cryptococcus diffluens ATCC 32059; experiment: Antifungal disk-diffusion; settings: Naganishia diffluens, ATCC32059, 72 h, read-out: Inhibition Zone Diameter
# Procedure: (§6) Disk diffusion. The antifungal activity of the selenocompounds against selected pathogenic yeasts were screened, measuring their inhibition zones [49]. Solutions of the selenocompounds were set at two concentrations: 200 µM (from a 10 mM stock solution) and 10 mM. The sterile filter paper discs (diameter (D) 6 mm) impregnated with the solutions (10 µL of solutions) were placed on Saboraud Dextrose Agar (SDA), inoculated with the respective suspensions of yeasts (inocula of 0.5 McFarland’s standard). The solvent (DMSO) served as negative control, and an additional plate was inoculated without disks, to serve as growth control. The inocula were used within 15 min of preparation, the disks were applied within 15 min of inoculating the plates, and incubation started within 15 min of application of the disks (according to EUCAST standards). The plates were then incubated for 72 h, under aerobic conditions, at 37 °C. Inhibition zone diameters generated by the tested compounds (including the diameter of the disc) were measured. All experiments were performed in triplicate.
# [8] = test system: Candida albicans ATCC 10231; experiment: Antifungal disk-diffusion; settings: ATCC10231, 72 h, read-out: Inhibition Zone Diameter
# Procedure: as §6
# [9] = test system: Candida krusei ATCC 14243; experiment: Antifungal disk-diffusion; settings: Pichia kudriavzevii, ATCC14243, 72 h; for zone of inhibition at 10000 µM: read-out: Inhibition Zone Diameter, 10 mM on disk, 72 h; for zone of inhibition at 200 µM: read-out: Inhibition Zone Diameter, 200 µM on disk, 72 h
# Procedure: as §6
# [10] = test system: Candida glabrata ATCC 36909; experiment: Antifungal disk-diffusion; settings: Nakaseomyces glabratus, ATCC36909, 72 h; for zone of inhibition at 10000 µM: read-out: Inhibition Zone Diameter, 10 mM on disk, 72 h; for zone of inhibition at 200 µM: read-out: Inhibition Zone Diameter, 200 µM on disk, 72 h
# Procedure: as §6
# [11] = test system: Candida parapsilosis ATCC 22019; experiment: Antifungal disk-diffusion; settings: Lodderomyces parapsilosis, ATCC22019, 72 h, read-out: Inhibition Zone Diameter
# Procedure: as §6
# [12] = MTT cytotoxicity assay on Vero cells; settings: African green monkey
# HSV-2 = experiment: Anti-HSV-2 activity by qPCR in infected Vero cells; settings: for minimal effective concentration: Human alphaherpesvirus 2, Vero, 24 h, read-out: lowest concentration with (significant) antiviral activity against HSV-2, Vero cells infected with HSV-2, MOI 0.01, qPCR after 24 h; for antiviral activity at x-fold lower concentration than acyclovir: compared with acyclovir
# [13] = test system: Candida tropicalis ATCC 13803; experiment: Antifungal disk-diffusion; settings: ATCC13803, 72 h, read-out: Inhibition Zone Diameter
# Procedure: as §6
# [14] = test system: S. enterica serovar Typhimurium 14028s; experiment: Biofilm formation assay with crystal violet; assay type: cell-based, Salmonella enterica serovar Typhimurium; settings: Salmonella enterica, compound at 50 μM, 48 h
# Procedure: as §3
# [15] = test system: Candida albicans ATCC 10231; settings: reference, range calculated from data in bibliography; cited from earlier work
# [16] = test system: Candida krusei ATCC 14243; settings: reference, range calculated from data in bibliography; cited from earlier work
# [17] = test system: Candida parapsilosis ATCC 22019; settings: reference, range calculated from data in bibliography; cited from earlier work
# [18] = test system: S. enterica serovar Typhimurium 14028s; experiment: Antibiofilm effect in combination with tetracycline; assay type: cell-based, Salmonella enterica serovar Typhimurium; settings: compound at ½ MIC; for antibiofilm effect in the presence of TET: 1.25 µM of TET; for effect on the antibiofilm activity of TET compared to TET alone: 2.5 µM of TET
# Procedure: as §4, §5
# [19] = test system: selected pathogenic yeasts; experiment: Antifungal disk-diffusion screening, overall statement on all evaluated strains; settings: 200 µM and 10 mM on disk
# Procedure: as §6
# [20] = Vero cells infected with HSV-2, qPCR
Structure (SMILES),MIC [1],MIC [2],MIC [3],MIC [4],zone of inhibition at 10000 µM [8],zone of inhibition at 10000 µM [9],zone of inhibition at 10000 µM [10],zone of inhibition at 10000 µM [11],IC50 at 24 h [12],minimal effective concentration (HSV-2),antiviral activity at concentration x-fold lower than the cytotoxic concentration (IC50 in Vero cells) (HSV-2),inhibition at 50 µM [14],inhibition at 50 µM (S. aureus ATCC 25923 [5]),effect on the antibiofilm activity of TET compared to TET alone [18],other results
COc1cc(OC)cc(C(=O)[Se]CC(=O)C(C)(C)C)c1 [Compound 11],> 200 µM,> 200 µM,100 µM,100 µM,19 mm,12 mm,18 mm,> 30 mm,39 µM,1.25 µM,31 fold,–,–,–,inhibition at 25 µM (S. aureus ATCC 25923 [5]; compound at 25 μM): > 70%; effect on the antibiofilm activity of CIP (S. aureus ATCC 25923 [6]): significantly increased the activity of CIP; zone of inhibition at 200 µM [7]: 10 mm; zone of inhibition at 10000 µM [7]: 18 mm; zone of inhibition at 200 µM [11]: 14 mm; antiviral activity at x-fold lower concentration than acyclovir (HSV-2): 4 fold
CC(C)(C)C(=O)C[Se]C(=O)c1ccc(Cl)cc1 [Compound 10],> 200 µM,50 µM,> 200 µM,> 200 µM,> 30 mm,> 30 mm,25 mm,> 30 mm,45 µM,5 µM,9 fold,–,–,–,inhibition at 10 µM (S. aureus ATCC 25923 [5]; compound at 10 μM): > 70%; zone of inhibition at 10000 µM [13]: 16 mm; zone of inhibition at 200 µM [9]: 14 mm; zone of inhibition at 200 µM [11]: 2 mm; antiviral activity at x-fold lower concentration than acyclovir (HSV-2): 8 fold
C[Se]C(=O)c1cccc(C(=O)[Se]C)n1 [Compound 3],–,–,–,–,–,–,–,–,> 100 µM,10 µM,–,> 50%,–,–,–
NC(=O)C[Se]C(=O)c1ccccc1 [Compound 6],–,–,–,–,–,–,< 10 mm,–,> 100 µM,25 µM,2 fold,–,> 70%,–,–
C[Se]C(=O)c1ccc(C(=O)[Se]C)s1 [Compound 2],–,–,–,–,–,–,–,–,> 100 µM,–,–,> 50%,–,–,antiviral activity against HSV-2 (in words) (HSV-2; [20]): did not reduce the number of HSV-2
"CC[C@H](C)C[C@H](C)CCCCCCCCC(=O)N[C@H]1C[C@@H](O)[C@@H](NCCN)NC(=O)[C@@H]2[C@@H](O)CCN2C(=O)[C@H]([C@H](O)CCN)NC(=O)[C@H]([C@H](O)[C@@H](O)c2ccc(O)cc2)NC(=O)[C@@H]2C[C@@H](O)CN2C(=O)[C@H]([C@@H](C)O)NC1=O [CSP, caspofungin]",–,–,–,–,–,–,–,–,–,–,–,–,–,–,Minimal inhibitory concentration [15]: ≤0.007 to 0.110 µM; Minimal inhibitory concentration [16]: 0.055 to 0.229 µM; Minimal inhibitory concentration [17]: 0.110 to 1.83 µM
CC(=O)C[Se]C(=O)c1ccc(Cl)cc1 [Compound 9],> 200 µM,50 µM,> 200 µM,100 µM,> 30 mm,> 30 mm,> 30 mm,> 30 mm,31 µM,–,–,–,–,significantly reduced the activity of the antibiotic,antibiofilm effect in the presence of TET [18]: significantly higher antibiofilm effects; zone of inhibition at 200 µM [7]: 12 mm; zone of inhibition at 10000 µM [7]: 29 mm; zone of inhibition at 200 µM [13]: 2 mm; zone of inhibition at 10000 µM [13]: 25 mm; zone of inhibition at 200 µM [9]: 19 mm; zone of inhibition at 200 µM [10]: 6 mm; zone of inhibition at 200 µM [11]: 4 mm
COC(=O)C[Se]C(=O)c1ccc(Cl)cc1 [Compound 7],–,–,–,–,–,–,–,–,> 100 µM,12.5 µM,8 fold,–,> 70%,significantly reduced the activity of the antibiotic,effect on the antibiofilm activity of CIP (S. aureus ATCC 25923 [6]): significantly increased the activity of CIP; concentration at which replication of HSV-2 was completely inhibited (HSV-2; [20]): 50 µM; antifungal activity in the disk-diffusion assay (in words) [19]: did not show antifungal activity
"Nc1nc2c(ncn2COCCO)c(=O)[nH]1 [acyclovir, reference compound]",–,–,–,–,–,–,–,–,–,10 µM,–,–,–,–,complete inhibition of HSV-2 replication (HSV-2; examined concentrations 1.25–2500 μM): could not inhibit the replication of HSV-2 completely
O=C1[Se]C(=O)c2ccccc21 [Compound 1],50 µM,100 µM,> 200 µM,> 200 µM,> 30 mm,> 30 mm,13 mm,6 mm,> 100 µM,12.5 µM,8 fold,–,> 70%,–,zone of inhibition at 200 µM [8]: 14 mm; zone of inhibition at 200 µM [13]: 3 mm; zone of inhibition at 10000 µM [13]: > 30 mm; zone of inhibition at 200 µM [9]: 11 mm; zone of inhibition at 200 µM [10]: 2 mm
C[Se]C(=O)c1cccc(C(=O)[Se]C)c1 [Compound 4],–,–,–,–,–,–,–,–,> 100 µM,–,–,75%,–,–,antibiofilm effect in the presence of TET [18]: significantly higher antibiofilm effects; antiviral activity against HSV-2 (in words) (HSV-2; [20]): did not reduce the number of HSV-2
C[Se]C(=O)c1ccc(C(=O)[Se]C)cc1 [Compound 5],–,–,–,–,–,–,–,–,> 100 µM,–,–,73%,–,significantly reduced the activity of the antibiotic,antiviral activity against HSV-2 (in words) (HSV-2; [20]): did not reduce the number of HSV-2
O=C(C[Se]C(=O)c1ccccc1)Oc1ccccc1 [Compound 8],–,–,–,–,–,–,–,–,> 100 µM,12.5 µM,8 fold,–,> 70%,significantly reduced the activity of the antibiotic,antibiofilm effect in the presence of TET [18]: significantly higher antibiofilm effects
